Results: US20130243847A1, “ACTIVATED CREATININE AND PRECURSORS THEREOF AS ANTIBACTERIAL AGENTS, COMPOSITIONS AND PRODUCTS CONTAINING SUCH AGENTS AND USE THEREOF” (BOARD OF REGENTS OF THE UNIVERSITY OF NEBRASKA, priority 2010, published 2013)

Legend:
Type in all cases: cell-based
S. aureus = experiment: Disc diffusion assay of creatine esters (Example 6); conditions: approx. 50 μL anhydrous polyethylene glycol carrier with 28% by weight agent
Description: Four (4) different creatine esters were prepared according to the method of U.S. Pat. No. 6,897,334 to Vennerstrom. The esters thus prepared were activated in the manner described herein to impart antibacterial activity thereto. Four (4) test formulations were prepared, each including approximately 50 μL of an anhydrous polyethylene glycol carrier containing 28% by weight of a different creatine ester. Each formulation was added to a 6 mm disc and inverted onto a brain heart infusion agar plate that was previously spread with S. aureus at 10^5 organisms per mL. Plates were incubated at 37° C. overnight and the clear zones showing inhibition of bacterial growth were measured.

Staphylococcus aureus = experiment: Disc assay of creatinine activated with different acids (Example 1, FIG. 1); conditions: for antibacterial activity after acid activation (FIG. 1): 5 mg acidified creatinine in Eridex on 6 mm disc, pH 5.0-5.5, S. aureus 10^5 per mL; for antibacterial activity of acid in Eridex alone: without creatinine at pH 5.5
Description: A 2 molar solution of anhydrous creatinine (Sigma-Aldrich Chemical Co. St. Louis, Mo.) was prepared in water (113 mg in 0.5 ml H2O) and adjusted to pH 5.0-5.5 with different acids. Twenty five microliters of each pH adjusted solution was added to 30 milligrams of a powdered carrier, Eridex™, (crystalline sugar alcohol) (Cargill Inc. Cedar Rapids, Iowa), and stirred into a thickened slurry. Approximately 50 microliters of each mixture, containing 5 mg of acidified creatinine, was applied to a 6 mm disc and inverted onto a brain heart infusion agar plate that was spread one hour prior with Staphylococcus aureus diluted to 10^5 organisms per milliliter. Plates were incubated at 37° C. overnight and the clear zones showing inhibition of bacterial growth were measured. Each sample was run in duplicate and reported as an average +/−1 mm of the two measurements. Creatinine HCl was used as an internal standard on each plate to provide uniformity from plate to plate (measurements varied <0.5 mm). Hydrochloride sig, a commercial creatinine HCl salt from Sigma-Aldrich, was used at pH 5.0 with no adjustment.

[1] = system: Enterococcus faecium vancomycin resistant (VRE); experiment: Disc diffusion assay, CEE vs gentamicin; conditions: E. faecium VRE; 50 mg anhydrous topical cream with 28% by weight agent; gentamicin 10 μg disc
Description: (§1) This testing involved the use of 50 mg of an anhydrous topical cream containing the antibacterial agent of the invention in an amount of 28% by weight and 10 μg of gentamicin, impregnated into a standard commercially available disc (Remel, Lenoxa Kans.).

[2] = system: Staphylococcus aureus laboratory strain 29213; experiment: Disc diffusion assay, CEE vs gentamicin; conditions: S. aureus laboratory strain 29213; 50 mg anhydrous topical cream with 28% by weight agent; gentamicin 10 μg disc
Description: as §1

[3] = system: Escherichia coli laboratory strain 35150; experiment: Disc diffusion assay, CEE vs gentamicin; conditions: E. coli laboratory strain 35150; 50 mg anhydrous topical cream with 28% by weight agent; gentamicin 10 μg disc
Description: as §1

[4] = system: Enterococcus faecalis laboratory strain 29212; experiment: Disc diffusion assay, CEE vs gentamicin; conditions: E. faecalis laboratory strain 29212; 50 mg anhydrous topical cream with 28% by weight agent; gentamicin 10 μg disc
Description: as §1

[5] = system: Pseudomonas aeruginosa laboratory strain 27853; experiment: Disc diffusion assay, CEE vs gentamicin; conditions: P. aeruginosa laboratory strain 27853; 50 mg anhydrous topical cream with 28% by weight agent; gentamicin 10 μg disc
Description: as §1

[6] = system: Staphylococcus aureus methicillin resistant (MRSA); experiment: Disc diffusion assay, CEE vs gentamicin; conditions: S. aureus MRSA; 50 mg anhydrous topical cream with 28% by weight agent; gentamicin 10 μg disc
Description: as §1

[7] = system: Candida albicans laboratory strain 24433; experiment: Disc diffusion assay, CEE vs gentamicin; conditions: C. albicans laboratory strain 24433; 50 mg anhydrous topical cream with 28% by weight agent; gentamicin 10 μg disc
Description: as §1

[8] = system: Pseudomonas aeruginosa high level resistance (HLR); experiment: Disc diffusion assay, CEE vs gentamicin; conditions: P. aeruginosa HLR; 50 mg anhydrous topical cream with 28% by weight agent; gentamicin 10 μg disc
Description: as §1

[9] = system: Acinetobacter baumannii high level resistance (HLR); experiment: Disc diffusion assay, CEE vs gentamicin; conditions: A. baumannii HLR; 50 mg anhydrous topical cream with 28% by weight agent; gentamicin 10 μg disc
Description: as §1

[10] = system: Escherichia coli beta lactamase producer (ESBL); conditions: E. coli ESBL; 50 mg anhydrous topical cream with 28% by weight agent; gentamicin 10 μg disc
Description: as §1

Molecule: CN(CC(=O)OCc1ccccc1)C(=N)N [Benzyl]
- Zone of Inhibition (S. aureus): 23 mm

Molecule: CCCCCCCCOC(=O)CN(C)C(=N)N [Octyl]
- Zone of Inhibition (S. aureus): 27 mm

Molecule: CC(=O)O [acetate]
- antibacterial activity after acid activation (FIG. 1) (Staphylococcus aureus): significant activity
- antibacterial activity after acid activation (FIG. 1) (Staphylococcus aureus; listed as creatinine activated with acetic acid): substantially greater antibacterial activity than creatinine activated with nitric or hydrochloric acid

Molecule: CC(=O)O [acetic acid, reference compound]
- antibacterial activity of acid in Eridex alone (Staphylococcus aureus): no antibacterial activity

Molecule: O=C(O)CC(O)(CC(=O)O)C(=O)O [citric acid, reference compound]
- antibacterial activity of acid in Eridex alone (Staphylococcus aureus): no antibacterial activity

Molecule: Gentamicin [Gn, reference compound]
- Zone of Inhibition [1]: 8 mm
- Zone of Inhibition [2]: 24 mm
- Zone of Inhibition [3]: 21 mm
- Zone of Inhibition [4]: 14 mm
- Zone of Inhibition [5]: 21 mm
- Zone of Inhibition [6]: 7 mm
- Zone of Inhibition [7]: 8 mm
- Zone of Inhibition [8]: 8 mm
- Zone of Inhibition [9]: 6 mm
- Zone of Inhibition [10]: 24 mm

Molecule: citrate
- antibacterial activity after acid activation (FIG. 1) (Staphylococcus aureus): significant activity

Molecule: fumaric
- antibacterial activity after acid activation (FIG. 1) (Staphylococcus aureus): little to no antibacterial activity

Molecule: sulfuric
- antibacterial activity after acid activation (FIG. 1) (Staphylococcus aureus): little to no antibacterial activity
